Series [1] has as its target T1, OXA-48 (Klebsiella pneumoniae, UniProt Q6XEC0).
T1 construct: made in house; host or cells: E. coli BL21(DE3)
Briefly: Surface plasmon resonance interaction analysis. The class given is binding. The following applies: 12.5-200 µM quercetin over immobilized OXA-48. Here is the method: Surface plasmon resonance (SPR) experiments were performed on a Biacore T100 at 25°C. The running buffer consisted of 10 mM PBS (pH 7.3), 0.5% Tween-20, and 2.5% DMSO. OXA-48 solution was prepared in a concentration of […] in 10 mM PBS (pH 7.3) and immobilized on a CM5 chip using standard amine coupling to a level of approximately 5000 RU. Quercetin was dissolved in the running buffer and tested in 2-fold dilutions ranging from 12.5 to 200 µM with an injection time of 30 s and a dissociation time of 60 s. The data were analyzed using Biacore T100 Evaluation Software 2.0.
A surface plasmon resonance (SPR) assay was then performed to investigate whether quercetin inhibited the activity of OXA-48 by directly binding to OXA-48. OXA-48 enzyme was immobilized on a CM5 sensor chip with an immobilization level of approximately 5000 RU. Quercetin was injected at different concentrations (12.5, 25, 50, 100 and 200 µM) over the protein surface.
(Surface plasmon resonance follows binding to a sensor surface in real time, without labels.)

A further series concerns mice. The following applies: ref Sullivan et al., 1951, Taepongsorat et al., 2008; cited from earlier work.
Series [2] concerns E. coli BW25113 ∆acrA∆bamB (OXA-48). Briefly: Growth curve with quercetin alone. The class given is cell-based. The following applies: quercetin at 16 or 64 μg/mL. From the text: We next performed checkerboard microdilution assays against OXA-48-positive strain BW25113 ∆acrA∆bamB (OXA-48) and OXA-48-negative strain ∆acrA∆bamB to assess the synergistic antimicrobial effect. […] The synergy effect was further verified by time-kill curves.
FIGURE 6 (A,B) Heatmap showing the growth inhibition of OXA-48-positive strain E. coli BW25113 ∆acrA∆bamB (OXA-48) (A) and OXA-48-negative strain ∆acrA∆bamB (B) in the presence of quercetin and piperacillin. (C) Time-kill curves for combination therapy of piperacillin and quercetin against E. coli BW25113 ∆acrA∆bamB (OXA-48). The concentrations of piperacillin and quercetin used in the assay were 64 and 64 μg/mL , respectively. (D) The growth curve of E. coli BW25113 ∆acrA∆bamB (OXA-48) in the absence and presence of quercetin.

The subject of series [3] is E.coli BW25113 ∆acrA∆bamB (OXA-48). The series is classed as cell-based. To be noted: for reduction in the piperacillin MIC: compound at 64 μg/mL; for MIC decrease for imipenem: compound at a dose of 64 μg/mL. As to the method:
The recombinant plasmid containing the Pbla promoter and OXA-48 constructed above was then transformed into BW25113, BW25113 ∆acrA, BW25113 ∆bamB, and BW25113 ∆acrA∆bamB. The above strains were used to study the minimum inhibitory concentration (MIC). Antibiotic susceptibility tests were performed by the microdilution method following Clinical and Laboratory Standards Institute (CLSI) criteria ([CLSI, 2015]). Four E. coli strains expressing OXA-48 were used to assess the inhibitors. The susceptibility to piperacillin/imipenem combined with the compound at a concentration of 16 or 64 μg/mL was determined. […] Each measurement was conducted in triplicate. The fractional inhibitory concentration index (FICI) was determined according to the following formula: FICI = MIC (QT) in combination/MIC (QT) alone + MIC (PIP) in combination/MIC (PIP) alone. The drug interactions are defined as synergistic if the FICI is ≤0.5, indifferent if the FICI is >0.5 and ≤4.0, and antagonistic if the FICI is >4.0.
To investigate whether the compounds could restore the antimicrobial activity of β-lactam, the MICs of β-lactam antibiotics against resistant Gram-negative bacteria in the absence and presence of compounds (fisetin, 3′,4′,7-trihydroxyflavone, luteolin or quercetin) were determined by using published guidelines described by CLSI ([CLSI, 2015]). Specifically, we used OXA-48 producing strains E. coli BW25113, BW25113 ∆acrA, BW25113 ∆bamB, and BW25113 ∆acrA∆bamB as resistant Gram-negative bacteria. […] Imipenem, a carbapenem antibiotic, was applied at increasing concentrations ranging from 0.03 μg/mL to 4 μg/mL. The compounds were tested at 64 and 16 μg/mL.

In series [4] the test system is ∆acrA∆bamB (OXA-48) mutant strain. Briefly: Cell-based screen of natural products in the presence of piperacillin. Details: species or system E. coli. As to the method: The ∆acrA∆bamB (OXA-48) mutant strain was then used to screen for inhibitors of OXA-48. […] Approximately 150 plant natural products with a concentration of 40 μg/mL were screened in the presence of 128 μg/mL piperacillin.

The target in series [5] is T1, OXA-48. The experiment in a line: Isothermal titration calorimetry of imipenem hydrolysis by OXA-48. The following applies: quercetin 0 to 40 µM, imipenem 1 mM, OXA-48 10 nM, 25°C. The series is classed as biochemical. A general note: In ITC the heat of successive injections is recorded.
Procedure: OXA-48, imipenem, and quercetin were prepared in 30 mM Tris, 5 mM NaHCO3 (pH 7.5) supplemented with 5% DMSO. […] The solutions were degassed by centrifugation at a speed of 14,000 × g for 5 min before injection. The enzyme and inhibitor samples were preincubated for 1 h and then loaded into the sample cell. Imipenem (38 µL) in the syringe was titrated into the sample cell (210 µL) in a single injection mode. Heat flow (μcal/s) was recorded as a function of time. As a negative control, the reaction in the absence of quercetin was measured. The data were collected and analyzed with MicroCal Analysis Launcher Origin 7.0 software.
Isothermal titration calorimetry (ITC) was performed to assess the thermodynamic inhibitory effect of quercetin against OXA-48 ([Zhang et al., 2018]). […] Different concentrations of quercetin were incubated with purified OXA-48 for 1 h in 30 mM Tris, 5 mM NaHCO3 (pH 7.5). The mixtures were loaded into the sample cell (210 µL). A 38 µL of the substrate (imipenem) in the syringe was titrated into the sample cell in a single injection mode.
Series [6] concerns the target T1, OXA-48. Briefly: Inhibition kinetics (Lineweaver-Burk plots) of OXA-48-catalyzed nitrocefin hydrolysis. The class given is biochemical. The following applies: for inhibition mode: Lineweaver-Burk plots, Km unchanged, Vmax decreased; for Ki: nitrocefin 25, 50, 75, 100 μM, Lineweaver-Burk. As to the method: The inhibition mode of quercetin and the inhibition constant (K i) were determined using a Lineweaver–Burk plot by fitting the initial rate versus the substrate concentration at each inhibitor concentration using SigmaPlot 12.0. The nitrocefin concentrations were 25, 50, 75, and 100 μM, respectively. The initial velocity was determined by measuring the […] as described above. All reaction rates were determined in triplicate.
To determine the inhibition mode of the flavonoids, the inhibition kinetics of quercetin, fisetin and luteolin against OXA-48 in the presence of different concentrations of substrate were determined, and the inhibition modes were determined by generating Lineweaver-Burk plots.

The target of the next series is T2, OXA-48 β-Lactamase (Klebsiella pneumoniae, UniProt Q6XEC0).
T2 construct: made in house; host or cells: E. coli BL21(DE3)
Briefly: Partition ratio measurement. The class given is biochemical. The following applies: OXA-48 12 nM, 1 h incubation; at a 5 μM concentration of quercetin.

Series [7] deals with T1, OXA-48. Briefly: Enzyme inhibition assay against purified OXA-48 with nitrocefin as substrate. The series is classed as biochemical. The following applies: for percent inhibition against OXA-48: at 50 μM compound, nitrocefin substrate, 50 µM; for IC50: purified OXA-48 12 nM, nitrocefin 200 μM, 0.1 M phosphate buffer pH 7.0, 50 mM NaHCO3, 25°C, read-out: IC50 against OXA-48. Here is the method:
The inhibitory activity of compounds against the purified OXA-48 was tested on a BioTek HTS reader. The reactions were conducted in 0.1 M phosphate buffer (pH 7.0) supplemented with 50 mM NaHCO3 at 25°C with a final assay volume of 100 μL. The concentrations of enzyme and substrate were 12 nM and 200 μM, respectively. The initial reaction rates in the absence and presence of the compound were monitored at 495 nm in triplicate. The inhibitor concentration causing a 50% decrease in enzyme activity (IC50) was determined by plotting the percent inhibition against the log10 of the inhibitor concentration and fitting the data in a dose–response-inhibition model using GraphPad Prism 7.0.
Quercetin is a member of the flavonoid class with diverse structures obtained from nature, some of which have been used for the treatment of infectious diseases in traditional medical systems ([Farhadi et al., 2019]). To investigate whether quercetin and other flavonoids are OXA-48 inhibitors, the enzyme inhibition assays were conducted on a BioTek HTS reader using nitrocefin as a substrate. The concentrations of enzyme and substrate were 12 nM and 200 μM, respectively. The initial hydrolysis rate of nitrocefin was monitored at 495 nm. The percentage inhibition is defined as the enzyme activity in the absence of inhibitor (100%) minus the remaining activity in the presence of inhibitor.

Series [8] has as its system E. coli BW25113 ∆acrA∆bamB (OXA-48). The experiment in a line: Mouse systemic infection model. The series is classed as in vivo, Kunming mice. The following applies: 10 mg/kg each, intravenous, 1 h post infection; organs 24 h post-infection; vs untreated group.
In the next series the test system is cells. To be noted: 50 µM fisetin/luteolin; ref Hytti et al., 2015; cited from earlier work.

The term LD50 denotes the dose at which mortality reaches 50%. For orientation: Ki means a measure of affinity in units of concentration, obtained from inhibition or displacement. Lower therefore signals tighter binding. In general, IC50 refers to the concentration needed to halve the response being measured.

T1 sequence (Q6XEC0 23-265 limits assumed): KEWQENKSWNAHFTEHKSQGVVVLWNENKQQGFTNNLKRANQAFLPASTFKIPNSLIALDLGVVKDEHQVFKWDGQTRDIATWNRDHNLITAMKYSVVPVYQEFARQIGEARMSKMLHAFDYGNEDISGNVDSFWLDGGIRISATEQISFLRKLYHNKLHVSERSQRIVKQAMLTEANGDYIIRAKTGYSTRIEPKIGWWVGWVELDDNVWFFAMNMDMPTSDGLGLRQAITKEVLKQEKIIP
T2 sequence (Q6XEC0 23-265 limits assumed): as above

On to `O=c1c(O)c(-c2ccc(O)c(O)c2)oc2cc(O)cc(O)c12` [Quercetin], for which the “SPR interaction with OXA-48” value on OXA-48 [1] is given as “dose-dependent interaction”. Besides, the LD50 with mice is 160 mg/kg. Moreover, the “growth of the cells” value in series [2] is given as “did not inhibit the growth of the cells”. Besides, in series [3], the “reduction in the piperacillin MIC” value was determined as 8 fold and the “MIC decrease for imipenem” value turned out to be 2 fold. In addition, the “restoration of antibiotic activity in screen” value in series [4] (40 μg/mL compound with 128 μg/mL piperacillin) is on record as “restored antibiotic activity”. Moreover, the “bactericidal effect of the compound itself” value in series [4] (in the absence of piperacillin) was “without bactericidal effect”. Also, the “reversibility of inhibition (total heat of imipenem hydrolysis)” value on OXA-48 [5] is “reversibly inhibited OXA-48”. Besides, at OXA-48 [6], the inhibition mode entry was “noncompetitively inhibited” and the Ki came out at 1310 ± 210 nM. For the same compound, the “partition ratio (I:E for greater than 90% inhibition)” value at OXA-48 β-Lactamase is “approximately 420”. Besides, at OXA-48 [7], the “percent inhibition against OXA-48” value is on record as 87% and the IC50 is 1470 ± 140 nM. Moreover, on OXA-48 [7] (listed as quercetin), the “percent inhibition against OXA-48” value is “more than 50%”. The “bacterial load in spleen and liver” value in series [8] was “did not show a significant reduction of bacterial load”.
On to `O=c1c(O)c(-c2ccc(O)c(O)c2)oc2cc(O)ccc12` [Fisetin], for which, in series [3], the “reduction in the piperacillin MIC” value is on record as 2 fold and the “MIC decrease for imipenem” value is recorded as 2 fold. On OXA-48 [6], the inhibition mode entry is “noncompetitively inhibited” and the affinity corresponds to a Ki of 620 ± 60 nM. The “toxicity to the cells” value in the series on cells was “no toxicity”. For the same compound, at OXA-48 [7], the “percent inhibition against OXA-48” value amounted to 90% and the IC50 came to 470 ± 30 nM. Also, the “percent inhibition against OXA-48” value at OXA-48 [7] (listed as fisetin) was “more than 50%”.

These data come from PMC9258905, “Discovery of Quercetin and Its Analogs as Potent OXA-48 Beta-Lactamase Inhibitors” (Frontiers in Pharmacology, 2022).
